Results on eight molecules are retold here after US20040018193A1 (priority 2002, published 2004).

Experiment [1] has as its system vaccinia virus. The experiment is classed as cell-based.
Experiment [2] concerns murine macrophages (RAW 264.7). The experiment is classed as cell-based.
Experiment [3] concerns Bacillus anthracis Sterne strain. The arrangement: species or system DBA/2 mice. Particulars: mouse, in vivo.
Experiment [4] deals with human neutrophils. It is filed as cell-based. Particulars: for IL-8 production by neutrophils: cytokine-stimulated, FIG. 12.
The subject of experiment [5] is human neutrophils. It is filed as cell-based. The following applies: cytokine-treated neutrophils; donor-dependent; FIGS. 10 and 11.
In experiment [6] the test system is primary murine splenocytes. The arrangement: species or system Balb/c mice. Particulars: mouse, in vivo.
The subject of experiment [7] is B. anthracis (Sterne). The arrangement: species or system A/J mice. The following applies: mouse, in vivo; for mice still alive: ip.
The subject of experiment [8] is Vaccinia virus (strain WR). The arrangement: species or system Balb/C mice. Particulars: mouse, in vivo.
The subject of experiment [9] is VEE virus. The arrangement: species or system mice. The following applies: mouse, in vivo.
Experiment [10] has as its system VEE virus. The arrangement: species or system mice. Particulars: mouse, in vivo. The source holds these as a separate data set.
The subject of experiment [11] is Colon-26 cells. The arrangement: species or system Balb/c mice. The following applies: mouse, in vivo.
Experiment [12] deals with murine peritoneal exudate cells. The arrangement: species or system Balb/c mice. Particulars: mouse, in vivo.
Experiment [13] relates to murine PECs. It is filed as cell-based, BALB/c mice.
The test system of experiment [14] is vaccinia virus. The experiment is classed as in vivo.

As to `CC(=O)O.CNC(=N)NCCC[C@H](N)C(=O)O` [L-NMA, N^G-monomethyl-L-arginine acetate, reference compound], the VV replication result in [1] is “restored VV replication”. Besides, the NO production entry in experiment [2] is reported as “inhibit NO production”.

Regarding `O=C(O)c1cn(C2CC2)c2cc(N3CCNCC3)c(F)cc2c1=O` [ciprofloxacin], the survival in [3] is 40%.

Take GM-CSF: the “IL-8 production by neutrophils” value in experiment [4] is “significantly increased”. Further, the superoxide anion levels result in experiment [5] is on record as “increased superoxide anion levels”. The CD25 marker expression entry in [6] is recorded as “significant activation”. For the same molecule, in experiment [7], the survival result is “increased survival” and the mice still alive was determined as 25%.

In [8], IFN-α showed a mice remained alive of 95% and a mice still alive of 95%.

With IL-8: cytokine, in experiment [5], the superoxide anion levels result was “increased superoxide anion levels”.

Regarding IL-12: cytokine, the “reduction of VEE titers in the lungs compared to control animals” value in experiment [9] is given as ~1.5 log10. In addition, in experiment [5], the superoxide anion levels entry is “increased superoxide anion levels”. In addition, in experiment [10], the “survival of lethally VEE-infected mice” value was “increased survival, but not significantly”. Moreover, the survival result in experiment [7] is recorded as “increased survival”. In addition, the “cytolysis by NK/NKT cells” value in [11] was “significant increases”.

With platelet activating factor [PAF], the “GM-CSF-induced IL-8 production” value in experiment [4] (PAF added to GM-CSF, FIG. 13) is on record as “enhances”. The “IL-8 production by neutrophils” value in [4] is listed as “increased IL-8 production moderately”.

B1: IFN-γ: cytokine interferon-gamma (protein, UniProt P01579 24-161, looked up)
Interferon gamma: QDPYVKEAENLKKYFNAGHSDVADNGTLFLGILKNWKEESDRKIMQSQIVSFYFKLFKNFKDDQSIQKSVETIKEDMNVKFFNSNKKKRDDFEKLTNYSVTDLNVQRKAIHELIQVMAELSPAAKTGKRKRSQMLFRG
Regarding B1, the “nitric oxide production by PECs” value in experiment [12] is recorded as “significant increases”. Further, in experiment [13], the “increase of cell wall-induced nitric oxide production” value was 10 to 20 µM. Further, in experiment [1], the “effect of cytokine on cell wall-enhanced vaccinia virus clearance” value is recorded as “possible weak synergetic effect”, the “plaque forming units relative to cell wall treatment” value is recorded as “reduced the number of plaque forming units even further” and the “reduction in VV titer” value was 95%. Besides, in experiment [8], the mice remained alive came out at 100%, the mice still alive is on record as 100% and the “protection against lethal VV (strain WR) challenge” value was “complete protection”. In addition, the nitric oxide production result in experiment [2] is reported as “increased nitric oxide production dramatically”. Besides, the “vaccinia virus-induced cytopathic effect” value in experiment [14] is “appeared to be reduced”. The “reduction of VEE titers in the lungs compared to control animals” value in [9] was ~0.5 log10. For the same molecule, the superoxide anion levels entry in [5] is “increased superoxide anion levels”. In [10], the “survival of lethally VEE-infected mice” value is listed as “increased survival”. Also, in experiment [7], the survival entry is recorded as “increased survival” and the mice still alive worked out at 10%. Also, the “cytolysis by NK/NKT cells” value in experiment [11] is reported as “moderate increases”.
